Data from publication PMC6874683, “Pyrrothiogatain acts as an inhibitor of GATA family proteins and inhibits Th2 cell differentiation in vitro” (Scientific Reports, 2019).
“And” between values parts separate entries of the source, which are not always exact repeats. Identical values can stand only once.

How the values were obtained:
[1] = target: T1, GATA3 (Homo sapiens, UniProt P23771); assay: AlphaScreen DNA-binding assay, GATA3 with GATA consensus DNA
T1 construct: we synthesized the recombinant full-length GATA3 protein with an N-terminal FLAG tag using the wheat cell-free system; made in house; host or cells: wheat cell-free protein synthesis system (WEPRO1240 kit)
Method: For the protein-DNA binding assay on a 384-well AlphaPlate (Perkin Elmer), 10 μL of bait protein mixture containing 1 µL FLAG-tagged protein in AlphaScreen Buffer (100 mM Tris-HCl (pH 8.0), 150 mM NaCl, 0.1% Tween 20, and 1 mg/mL BSA) and 5 µL biotinylated oligonucleotide (0–10 µM final concentration) in AlphaScreen Buffer were dispended into the AlphaPlate. Then, the plate was incubated at 26 °C for 1 h. After incubation, 10 μL of the detection mixture containing 0.4 µg/mL Anti-DYKDDDDK antibody (1E6, Wako), 0.1 μL streptavidin-conjugated AlphaScreen donor beads, and 0.1 μL protein A-conjugated AlphaScreen acceptor beads in AlphaScreen Buffer was mixed and incubated at 26 °C for 1 h, and then, the AlphaScreen signal was detected using an EnVision device with the AlphaScreen signal detection program (PerkinElmer).
For the AlphaScreen-based chemical library screening, we used a diverse set of 9,600 synthesized chemicals established by the Drug Discovery Initiative (The University of Tokyo, Tokyo, Japan). All chemical compounds (10 mM) were dissolved in DMSO, and were pre-dispensed into a 384-well Alphaplate (250 nL/well). […] The AlphaScreen signal was detected using an EnVision device with the AlphaScreen signal detection program (PerkinElmer). […]

[2] = system: cytokine production; assay: ELISA of cytokine production, total CD4+ T cells under IL-2 conditions; assay type: cell-based, mouse; details: 30 µM, five days
Method: C57BL/6 mice were purchased from Clea (Clea Japan, Inc., Tokyo, Japan). Total CD4^+ T cells isolated from mouse spleen were prepared using a FITC anti-mouse CD4 antibody (Cat#100510, RM4–5, BioLegend) and anti-FITC-microbeads (Cat#130-097-050, Miltenyi Biotec). Naive CD4^+ T cells (CD44^low, CD62L^high) were prepared using a MojoSort Mouse CD4 T cell Isolation Kit (Cat#480033), BioLegend). Biotinylated anti-CD44 (Cat#103004, IM7) and anti-CD25 antibodies (Cat#102004, PC61) were purchased from BioLegend. […]
The CD4^+ T cells cultured for five days were stimulated using an immobilized anti-TCR-β mAb (3 µg/mL, H57–597, BioLegend) for 16 h, and the culture supernatants were recovered. The amount of cytokines in the recovered supernatants was determined with ELISA using the following antibodies and reagents: anti-IL-4 mAb (Cat#554387, BD Biosciences), biotin-anti-IL-4 mAb (Cat#554390, BD Biosciences), anti-IL-5 mAb (Cat#554393, BD Biosciences), biotin-anti-IL-5 mAb (Cat#554397, BD Biosciences), anti-IFN-γ mAb (Cat#551216, BD Biosciences), biotin-anti-IFN-γ mAb (Cat#554410, BD Biosciences), anti-IL-2 mAb (Cat#554424, BD Biosciences), biotin-anti-IL-2 mAb (Cat#554426, BD Biosciences), streptavidin horseradish peroxidase (Cat#434323, Invitrogen), and TMB peroxidase EIA substrate kit (Cat#1721066, BioRad). […]

[3] = system: cytokine, GATA3 and Tbx21 mRNA; assay: Quantitative RT-PCR, total CD4+ T cells under IL-2 conditions; assay type: cell-based, mouse; details: 30 µM, five days
Method: C57BL/6 mice were purchased from Clea (Clea Japan, Inc., Tokyo, Japan). Total CD4^+ T cells isolated from mouse spleen were prepared using a FITC anti-mouse CD4 antibody (Cat#100510, RM4–5, BioLegend) and anti-FITC-microbeads (Cat#130-097-050, Miltenyi Biotec). Naive CD4^+ T cells (CD44^low, CD62L^high) were prepared using a MojoSort Mouse CD4 T cell Isolation Kit (Cat#480033), BioLegend). Biotinylated anti-CD44 (Cat#103004, IM7) and anti-CD25 antibodies (Cat#102004, PC61) were purchased from BioLegend. CD4^+ T cells (7.5 × 10^5) were stimulated using immobilized anti-TCR-β mAb (3 µg/mL, H57–597, BioLegend) plus an anti-CD28 mAb (1.0 µg/mL, cat#40–0281, TONBO Biosciences) for 2 days, and then, the cells were further expanded under similar conditions for an additional 3 days. IL-2 conditions: IL-2 (10 ng/mL, Pepro Tech); Th2 conditions: IL-2 (10 ng/mL, Pepro Tech), IL-4 (1 ng/mL, Pepro Tech), and anti-IFN-γ mAb (2.5 µg/mL, cat#40–731, TONBO Biosciences). Th1 conditions: IL-2 (10 ng/mL, Pepro Tech), IL-12 (1 ng/mL, Pepro Tech), and anti-IL-4 mAb (2.5 µg/mL, cat#40–731, TONBO Biosciences). The cultured cells were subjected to intracellular staining, ELISA assay, and RT-PCR. All animal experiments received approval from the Ehime University Administrative Panel for Animal Care. All animal care was conducted in accordance with the guidelines of Ehime University.
Total RNA was isolated using the TRI Reagent (Molecular Research Center, Inc.). Reverse transcription and qRT-PCR were performed using the Transcriptor First Strand cDNA Synthesis Kit (Cat#04379012001, Roche) and FastStart Essential DNA Green Master (Cat#06402712001, Roche), according to the manufacturer’s protocols. qRT-PCR primers were used as follow; IL-4: 5′-GATCGGCATTTTCAACGAG-3′ (forward), 5′-[…]-3′ (reverse); IL-13: 5′-[…]-3′ (forward), 5′-[…]-3′ (reverse); IFN-γ: 5′-[…]-3′ (forward), 5′-[…]-3′ (reverse); IL-2: 5′-[…]-3′ (forward), 5′-[…]-3′ (reverse); Gata3: 5′-TTATCAAGCCCAAGCGAAG-3′ (forward), 5′-TGGTGGTGGTCTGACAGTT-3′ (reverse); and Tbx21: 5′-[…]-3′ (forward), 5′-[…]-3′ (reverse).
(C) Quantitative RT-PCR analysis of the pyrrothiogatain-treated Th2 cells shown in panel (A).

T1 sequence (P23771 whole entry, species assumed): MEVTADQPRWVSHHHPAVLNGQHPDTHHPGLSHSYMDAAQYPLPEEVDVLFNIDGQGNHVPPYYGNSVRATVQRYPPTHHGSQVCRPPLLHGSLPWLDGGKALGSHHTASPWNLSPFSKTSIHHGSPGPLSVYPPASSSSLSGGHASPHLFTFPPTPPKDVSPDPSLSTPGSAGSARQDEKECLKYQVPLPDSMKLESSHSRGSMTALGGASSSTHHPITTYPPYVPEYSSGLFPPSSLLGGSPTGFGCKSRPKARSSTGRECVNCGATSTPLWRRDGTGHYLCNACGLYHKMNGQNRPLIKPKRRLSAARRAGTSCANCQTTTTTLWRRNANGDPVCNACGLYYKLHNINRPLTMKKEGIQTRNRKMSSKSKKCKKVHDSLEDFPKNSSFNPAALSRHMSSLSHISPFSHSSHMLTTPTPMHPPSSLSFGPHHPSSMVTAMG

- IC50 ([1]; AlphaScreen, pyrrothiogatain 0 to 200 µM): ~50 µM and 54.7 µM
- Inhibition of GATA3–DNA binding in the second screen ([1]; second screen, 0 to 10 µM): specifically inhibited
Structure (SMILES): Cc1ccc(C)n1-c1ccsc1C(=O)O [Pyrrothiogatain, 3-(2,5-dimethyl-1H-pyrrol-1-yl)thiophene-2-carboxylic acid]
- Production of IFN-γ (ELISA) [2]: Increased
- Production of IL-4, IL-5, IL-10, and IL-13 (ELISA) [2]: decreased
- Expression of GATA3, mRNA level [3]: not influenced
- Expression of Tbx21 [3]: increased
- mRNA expression of IFN-γ (RT-qPCR) [3]: Increased
- mRNA expression of IL-4, IL-5, IL-10, and IL-13 (RT-qPCR) [3]: decreased
